In US7462598B2, “Antimicrobial theta defensins, analogs thereof, and methods of use” (priority 2002, dated 2008):
Bridge positions count the residues as written; N and C are the ends. Square brackets hold non-standard residues; d marks the D form. Peptide text beside a SMILES is read from it. hSer = N[C@@H](CCO)C(=O)O

What was measured:
[1] = tested on: S. aureus 502a; assay: Cell-suspension microbicidal assay (MMC); type: cell-based, Staphylococcus aureus; details: for MMC, S. aureus: lowest concentration that reduced cell viability by 99.9%, 10 mM PIPES, 5 mM glucose, pH 7.4, 2 h 37° C.
In short: (§1)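 Log-phase microbes (2×10^6 CFU/ml) exposed to two-fold peptide dilutions (0.062-8.0 μg/ml) in 10 mM PIPES, 5 mM glucose, pH 7.4, 2 h at 37 °C, then diluted 1:10 to 1:10^6 in broth and grown 24-48 h. MMC is the lowest concentration giving ≥99.9% killing (no pellet at 1:10^3).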

[2] = tested on: E. coli ML35; assay: Cell-suspension microbicidal assay (MMC); type: cell-based, Escherichia coli; details: for MMC, E. coli: lowest concentration that reduced cell viability by 99.9%, 10 mM PIPES, 5 mM glucose, pH 7.4, 2 h 37° C.
In short: as §1

[3] = tested on: C. albicans 16820; assay: Cell-suspension microbicidal assay (MMC); type: cell-based, Candida albicans; details: for MMC, C. albicans: lowest concentration that reduced cell viability by 99.9%, 10 mM PIPES, 5 mM glucose, pH 7.4, 2 h 37° C.
In short: as §1

[4] = tested on: S. aureus 502a, E. coli ML35, and C. albicans 16820; assay: Cell-suspension microbicidal assay, statements across the test organisms (lowest MMC, overall ranges); type: cell-based; details: for M: peptide concentration that kill 99.9% of either S. aureus, E. coli, or C. albicans, lowest MMC value
In short: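 Log-phase organisms (2×10^6 CFU/ml) were exposed for 2 h at 37° C. to peptide (0.062–8.0 μg/ml final) in 10 mM PIPES/5 mM glucose, pH 7.4, then serially diluted in broth and grown 24–48 h. MMC was defined as ≥99.9% killing (no pellet at 1:10^3). SI was calculated as concentration giving 3% hemolysis in PBS divided by lowest MMC.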

[5] = tested on: E. coli ML35; assay: Membrane permeabilization assay (ONPG hydrolysis); type: cell-based, Escherichia coli; details: for ONPG hydrolysis: rates at 1 μg/ml concentration of each peptide
In short: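 ONPG hydrolysis by log-phase E. coli ML35 (1×10^6 CFU/ml) in 10 mM PIPES pH 7.4 with 3 mM ONPG, peptides at 0-8.0 μg/ml final; A405 followed for 60 min. Control: 0-4 μg/ml peptide incubated with recombinant β-galactosidase and 3 mM ONPG.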

[6] = target: T1, recombinant β-galactosidase (Escherichia coli, UniProt P00722); assay: Inhibition of purified β-galactosidase (ONPG hydrolysis); type: biochemical
T1 construct: gift from Dr. Donald P. Satchell, University of California, Irvine, Department of Pathology
Protocol: Dose-dependent rates of ONPG hydrolysis were determined using 10 nM of purified β-galactosidase.
The effect of each peptide on β-galactosidase-dependent ONPG hydrolysis was determined by incubating 0-4 μg/ml of each peptide with recombinant β-galactosidase (a gift from Dr. Donald P. Satchell, University of California, Irvine, Department of Pathology) and 3 mM ONPG as described above.

[7] = tested on: S. aureus 502a; type: cell-based, Staphylococcus aureus; details: 502a
Protocol: Dose-dependent staphylocidal activity of each peptide was determined in assays containing 10% normal human serum. Percentages of killing are relative to activities of peptide-containing incubations in which serum was omitted.
(§2) To determine the effects of serum, salt, calcium chloride and magnesium chloride on microbicidal activities, peptide activities were determined in assays containing varying ionic strength, divalent cations, and serum. The effect of serum on staphylocidal activity of each peptide was determined by incubating 1×10^6 CFU/ml of S. aureus 502a with increasing peptide concentrations (0.5-4 μg/ml) in 10 mM PIPES, pH 7.4, containing 10% normal human serum for 2 h at 37° C. The effect of sodium chloride on staphylocidal activities was assessed with 5 μg/ml of each peptide in 10 mM PIPES, pH 7.4, containing varying concentrations of sodium chloride (0-160 mM). Effects of divalent cations, CaCl2, or MgCl2 (0-5.6 mM) were assessed in microbicidal assays against E. coli ML35. Bactericidal activities were determined by colony counting (see Example II), and microbicidal potencies were expressed as percent killing as follows:
(§3) [formula] where A=surviving bacteria (CFU/ml) after initial incubation with each peptide in buffer containing serum, salt, or divalent cations and Ao=bacterial CFU/ml in the “no-peptide” controls.

[8] = tested on: E. coli ML35; assay: Bactericidal activity in divalent cations (CaCl2, MgCl2); type: cell-based, Escherichia coli
Protocol: as §2, §3

[9] = tested on: S. aureus 502a, E. coli ML35, C. albicans 16820, and C. neoformans 271a; assay: Agar diffusion assay, statements across the test organisms; type: cell-based; details: against E. coli, FIG. 18A-D
Protocol: Briefly, 10-μl wells were bored in a 9-cm^2 plate of agarose, buffered with 10 mM 1,4-piperazinebis(ethanesulfonic acid) (PIPES), pH 7.4, containing 5 mM glucose, and seeded with 1×10^6 mid-log phase cells. Five-μl aliquots of peptides, dissolved in 0.01% HOAc at 10-300 μg/ml, were added to each well. After incubation at 37° C. for 2 h, the seeded agar was overlaid with molten agarose containing 6% trypticase soy broth (for bacteria) or Sabouraud dextrose broth (for fungi). Plates were incubated at 37° C. for 18-24 h, and antimicrobial activity was determined by measuring the diameter of clearing around each well.

[10] = tested on: S. aureus 502a; type: cell-based, Staphylococcus aureus; details: physiologic salt / various concentrations of salt; FIG. 6
Protocol: The activity of each peptide (5 μg/ml) was determined in assays containing increasing concentrations of sodium chloride. Staphylocidal activities were expressed as percentages of killing obtained in the absence of additional NaCl.
as §2, §3

T1 sequence (P00722 2-1024): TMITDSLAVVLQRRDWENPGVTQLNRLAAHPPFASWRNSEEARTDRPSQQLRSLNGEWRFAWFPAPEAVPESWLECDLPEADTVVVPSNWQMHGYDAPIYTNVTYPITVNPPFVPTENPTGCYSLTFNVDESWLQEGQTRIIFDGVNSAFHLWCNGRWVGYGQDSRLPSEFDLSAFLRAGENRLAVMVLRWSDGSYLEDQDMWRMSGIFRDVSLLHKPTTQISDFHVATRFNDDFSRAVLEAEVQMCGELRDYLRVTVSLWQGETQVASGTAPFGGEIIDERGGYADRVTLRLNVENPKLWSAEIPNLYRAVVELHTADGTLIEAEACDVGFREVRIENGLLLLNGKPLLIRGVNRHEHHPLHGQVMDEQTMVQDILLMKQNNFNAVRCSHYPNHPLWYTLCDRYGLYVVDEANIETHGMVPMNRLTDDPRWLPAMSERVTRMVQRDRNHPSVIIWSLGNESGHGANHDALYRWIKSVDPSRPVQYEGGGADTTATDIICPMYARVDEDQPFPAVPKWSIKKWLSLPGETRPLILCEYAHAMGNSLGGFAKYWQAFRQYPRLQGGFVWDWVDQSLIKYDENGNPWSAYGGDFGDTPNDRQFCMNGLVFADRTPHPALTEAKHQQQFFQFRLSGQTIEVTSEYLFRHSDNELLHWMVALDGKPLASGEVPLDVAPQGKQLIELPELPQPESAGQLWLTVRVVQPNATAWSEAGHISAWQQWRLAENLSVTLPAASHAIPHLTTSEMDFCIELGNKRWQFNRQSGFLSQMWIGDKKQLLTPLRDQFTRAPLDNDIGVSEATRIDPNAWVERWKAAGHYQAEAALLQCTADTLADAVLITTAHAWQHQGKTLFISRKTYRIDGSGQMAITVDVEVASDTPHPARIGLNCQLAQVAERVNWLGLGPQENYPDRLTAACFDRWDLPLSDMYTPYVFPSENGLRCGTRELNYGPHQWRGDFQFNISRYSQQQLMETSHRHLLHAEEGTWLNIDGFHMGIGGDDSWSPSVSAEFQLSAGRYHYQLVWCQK

Structure (SMILES)	MMC, S. aureus [1] [µg/mL]	MMC, E. coli [2] [µg/mL]	MMC, C. albicans [3] [µg/mL]	M [4] [µg/mL]	ONPG hydrolysis [5]	antimicrobial activity compared with synthetic / native RTD-1 [9]	also measured
CC(C)[C@@H]1NC(=O)[C@@H]2CSSC[C@H](NC(=O)[C@H](CCCNC(=N)N)NC(=O)[C@@H](NC(=O)CNC(=O)CN)CSSC[C@@H](C(=O)N[C@@H](CCCNC(=N)N)C(=O)N[C@@H](CCCNC(=N)N)C(N)=O)NC1=O)C(=O)N[C@@H](Cc1ccc(O)cc1)C(=O)N[C@H]1CSSC[C@H](NC(=O)[C@H](Cc3ccccc3)NC(=O)[C@H](CCCNC(=N)N)NC(=O)[C@H](CCCNC(=N)N)NC(=O)[C@H](CCCNC(=N)N)NC1=O)C(=O)N[C@@H](C(C)C)C(=O)N2 [3cys 2:2 PG-1-NH] (H-GGCRCYCRRRFCVCVCRR-NH2; disulfide 3-16, 5-14, 7-12; N-terminus assumed)	0.3	1.0	1.5	0.25	15.3 (A405/sec) · 10^−5		fold higher activity against S. aureus than 3cys 3:1 PG-1-NH ([1]; from MMC, Table 2): 6-7 fold; fold higher activity against C. albicans than 3cys 3:1 PG-1-NH ([3]; from MMC, Table 2): 2-3 fold; inhibition of β-galactosidase activity ([6]; peptide 0-4 μg/ml, concentration not given, FIG. 10): potent inhibitor
CC(C)C[C@H](NC(=O)[C@@H]1CSSC[C@H](NC(=O)[C@H](CCCNC(=N)N)NC(=O)[C@H](C)NC(=O)[C@@H](NC(=O)CNC(=O)[C@@H](N)CCCNC(=N)N)C(C)C)C(=O)N[C@@H](CC(C)C)C(=O)N[C@H]2CSSC[C@H](NC(=O)[C@H](C(C)C)NC(=O)CNC(=O)[C@H](CCCNC(=N)N)NC(=O)[C@H](CCCNC(=N)N)NC2=O)C(=O)N[C@@H](CCCNC(=N)N)C(=O)N1)C(=O)N[C@@H](C)C(=O)N[C@@H](CCCNC(=N)N)C(N)=O [5:3 aRTD-3-NH] (H-RGVARCLCRRGVCRCLAR-NH2; disulfide 6-15, 8-13; N-terminus assumed)	1.0		2.3	1	3.9 (A405/sec) · 10^−5		fold lower activity against E. coli than RTD-3 and PG-1 ([2]; from MMC, Table 2): 2-3 fold; fold lower activity against C. albicans than RTD-3 and PG-1 ([3]; from MMC, Table 2): 2-3 fold; inhibition of bactericidal activity in serum [7]: 20-50%; effect of divalent cations on bactericidal activity (in words) ([8]; various concentrations of divalent cations): completely inhibited
CC[C@H](C)[C@@H]1NC(=O)[C@@H]2CSSC[C@H](NC(=O)[C@H](CCCNC(=N)N)NC(=O)[C@@H]3CSSC[C@H](NC1=O)C(=O)N[C@@H]([C@@H](C)O)C(=O)N[C@@H](CCCNC(=N)N)C(=O)NCC(=O)N[C@@H](Cc1ccccc1)C(=O)N3)C(=O)N[C@@H]([C@@H](C)CC)C(=O)N[C@H]1CSSC[C@H](NC(=O)[C@H](Cc3ccccc3)NC(=O)CNC(=O)[C@H](CCCNC(=N)N)NC(=O)[C@H]([C@@H](C)O)NC1=O)C(=O)N[C@@H](CCCNC(=N)N)C(=O)N2 [RTD-2] (cyclo(CICTRGFCRCICTRGFCR); disulfide 1-10, 3-8, 12-17)	1.5	2.3	3.0	1.5	6.3 (A405/sec) · 10^−5		reduction of the rate of ONPG hydrolysis on addition of RTD-2 ([5]; RTD-2 1.0 μg/ml final added after 30 min to E. coli permeabilized with 1 μg/ml RTD-1, FIG. 11B): approximately 30%; reduction of the rate of ONPG hydrolysis by purified β-galactosidase ([6]; 2 μg/ml, relative to incubations without peptide): 80%
CC[C@H](C)[C@@H]1NC(=O)[C@@H]2CSSC[C@H](NC(=O)[C@H](CCCNC(=N)N)NC(=O)[C@@H](NC(=O)[C@H](Cc3ccccc3)NC(=O)CN)CSSC[C@@H](C(=O)N[C@H](C(=O)N[C@@H](CCCNC(=N)N)C(=O)N[C@@H](CCO)C(=O)O)[C@@H](C)O)NC1=O)C(=O)N[C@@H](CC(C)C)C(=O)N[C@H]1CSSC[C@H](NC(=O)[C@H](C(C)C)NC(=O)CNC(=O)[C@H](CCCNC(=N)N)NC(=O)[C@H](CCCNC(=N)N)NC1=O)C(=O)N[C@@H](CCCNC(=N)N)C(=O)N2 [aRTD-1-Hse] (H-GFCRCLCRRGVCRCICTR[hSer]-OH; disulfide 3-16, 5-14, 7-12 (inferred); N-terminus and C-terminus assumed)						more antimicrobial than native RTD-1	
CC[C@H](C)[C@@H]1NC(=O)[C@@H]2CSSC[C@H](NC(=O)[C@H](CCCNC(=N)N)NC(=O)[C@@H](NC(=O)[C@H](Cc3ccccc3)NC(=O)CN)CSSC[C@@H](C(=O)N[C@H](C(=O)N[C@@H](CCCNC(=N)N)C(=O)O)[C@@H](C)O)NC1=O)C(=O)N[C@@H]([C@@H](C)CC)C(=O)N[C@H]1CSSC[C@H](NC(=O)[C@H](Cc3ccccc3)NC(=O)CNC(=O)[C@H](CCCNC(=N)N)NC(=O)[C@H]([C@@H](C)O)NC1=O)C(=O)N[C@@H](CCCNC(=N)N)C(=O)N2 [aRTD-2-OH] (H-GFCRCICTRGFCRCICTR-OH; disulfide 3-16, 5-14, 7-12; N-terminus assumed)	1.5		3.0	1.5	4.3 (A405/sec) · 10^−5		fold reduction of potency against E. coli versus native cyclic peptide ([2]; versus RTD-2): at least 3 fold; 99.9% kill against one of the bacterial organisms ([4]; at 8 μg/ml, the highest concentration tested): did not achieve a 99.9% kill; effect of salt on microbicidal activity (in words) [10]: most inhibited; inhibition of bactericidal activity by calcium chloride ([8]; physiologic concentration of calcium chloride (1.4 mM)): completely ablated
CC[C@H](C)[C@@H]1NC(=O)[C@@H]2CSSC[C@H](NC(=O)[C@H](CCCNC(=N)N)NC(=O)[C@@H]3CSSC[C@H](NC1=O)C(=O)N[C@@H]([C@@H](C)O)C(=O)N[C@@H](CCCNC(=N)N)C(=O)NCC(=O)N[C@@H](Cc1ccccc1)C(=O)N3)C(=O)N[C@@H](CC(C)C)C(=O)N[C@H]1CSSC[C@H](NC(=O)[C@H](C(C)C)NC(=O)CNC(=O)[C@H](CCCNC(=N)N)NC(=O)[C@H](CCCNC(=N)N)NC1=O)C(=O)N[C@@H](CCCNC(=N)N)C(=O)N2 [recombinant RTD-1] (cyclo(GFCRCLCRRGVCRCICTR); disulfide 3-16, 5-14, 7-12)						virtually indistinguishable	
